Assay results: US20260125370A1, “SULFOXIMINE COMPOUNDS AS HISTONE DEACETYLASE 6 INHIBITOR, AND PHARMACEUTICAL COMPOSITION COMPRISING THE SAME” (CHONG KUN DANG PHARMACEUTICAL CORP., priority 2022, published 2026)
pIC50: −log10 of the molar value.

Legend:
[1] = molecular target: T1, human recombinant HDAC6 (Homo sapiens, UniProt Q9UBN7); test: HDAC6 enzyme activity inhibition (fluorimetric, in vitro); format: biochemical; conditions: samples at 0.1, 1, 10, 100 and 1000 nM
T1 construct: purchased Calbiochem 382180
T1 sequence (Q9UBN7 1-1215): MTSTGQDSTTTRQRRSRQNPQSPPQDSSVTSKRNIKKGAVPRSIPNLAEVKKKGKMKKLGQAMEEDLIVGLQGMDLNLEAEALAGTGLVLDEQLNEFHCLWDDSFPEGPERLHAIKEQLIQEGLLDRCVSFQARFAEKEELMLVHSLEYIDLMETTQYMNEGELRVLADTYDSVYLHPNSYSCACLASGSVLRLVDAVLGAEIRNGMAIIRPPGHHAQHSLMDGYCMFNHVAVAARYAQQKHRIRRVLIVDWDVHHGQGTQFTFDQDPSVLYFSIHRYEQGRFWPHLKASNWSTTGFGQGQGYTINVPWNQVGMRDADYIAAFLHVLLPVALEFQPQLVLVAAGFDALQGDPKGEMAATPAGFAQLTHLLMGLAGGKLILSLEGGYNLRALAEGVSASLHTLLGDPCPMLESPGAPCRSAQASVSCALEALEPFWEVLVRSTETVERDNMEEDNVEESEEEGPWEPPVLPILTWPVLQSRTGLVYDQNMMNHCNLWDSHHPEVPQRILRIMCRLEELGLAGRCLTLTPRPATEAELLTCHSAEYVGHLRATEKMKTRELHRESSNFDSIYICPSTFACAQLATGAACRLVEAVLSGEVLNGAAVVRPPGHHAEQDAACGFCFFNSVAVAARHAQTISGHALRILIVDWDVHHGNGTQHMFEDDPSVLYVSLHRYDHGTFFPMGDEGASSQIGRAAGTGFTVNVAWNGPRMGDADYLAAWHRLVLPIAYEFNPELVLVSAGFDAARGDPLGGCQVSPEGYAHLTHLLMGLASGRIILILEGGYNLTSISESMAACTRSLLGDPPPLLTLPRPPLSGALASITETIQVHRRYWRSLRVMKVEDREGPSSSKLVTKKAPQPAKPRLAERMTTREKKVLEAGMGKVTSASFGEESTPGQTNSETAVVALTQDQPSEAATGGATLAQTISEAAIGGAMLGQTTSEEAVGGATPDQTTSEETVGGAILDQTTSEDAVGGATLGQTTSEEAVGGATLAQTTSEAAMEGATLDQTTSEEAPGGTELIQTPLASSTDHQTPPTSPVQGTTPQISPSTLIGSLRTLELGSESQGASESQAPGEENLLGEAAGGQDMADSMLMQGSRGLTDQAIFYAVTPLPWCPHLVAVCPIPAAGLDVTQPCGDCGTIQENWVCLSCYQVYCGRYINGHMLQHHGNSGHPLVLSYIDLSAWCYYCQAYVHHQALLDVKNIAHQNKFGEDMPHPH
In short: (§1)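 Recombinant human HDAC1 or HDAC6 (0.3 μg) with Fluor de Lys-SIRT1 substrate at […], 60 min at 37 °C, then developer 30 min; fluorescence Ex 360/Em 460. Compounds at 100–10000 nM for HDAC1 and 0.1–1000 nM for HDAC6; IC50 calculated.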

[2] = molecular target: T2, human recombinant HDAC1 (Homo sapiens, UniProt Q13547); test: HDAC1 enzyme activity inhibition (HDAC1 Fluorimetric Drug Discovery Assay Kit, in vitro); format: biochemical; conditions: samples at 100, 1000 and 10000 nM
T2 construct: purchased Enzolifesciences BML-SE456
T2 sequence (Q13547 whole entry): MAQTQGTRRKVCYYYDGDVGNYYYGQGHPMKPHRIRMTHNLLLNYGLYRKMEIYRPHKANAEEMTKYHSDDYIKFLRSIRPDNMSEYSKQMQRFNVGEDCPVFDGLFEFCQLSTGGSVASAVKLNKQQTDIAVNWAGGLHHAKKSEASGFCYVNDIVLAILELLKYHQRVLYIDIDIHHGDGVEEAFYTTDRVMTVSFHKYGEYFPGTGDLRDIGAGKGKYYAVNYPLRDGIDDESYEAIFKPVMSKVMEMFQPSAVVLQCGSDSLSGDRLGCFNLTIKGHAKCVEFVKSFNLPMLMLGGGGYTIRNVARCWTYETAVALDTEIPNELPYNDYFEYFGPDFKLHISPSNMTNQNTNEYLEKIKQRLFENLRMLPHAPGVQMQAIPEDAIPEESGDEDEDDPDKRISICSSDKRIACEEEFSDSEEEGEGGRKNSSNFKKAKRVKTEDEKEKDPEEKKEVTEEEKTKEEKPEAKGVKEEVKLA
In short: as §1

Row | SMILES | pIC50 [1] | pIC50 [2]
1 | N=S1(=O)CCN(C(=O)N(Cc2cnc(-c3nnc(C(F)F)o3)cn2)c2cccc(F)c2)CC1 [Compound 81, N-[[5-[5-(difluoromethyl)-1,3,4-oxadiazol-2-yl]pyrazin-2-yl]methyl]-N-(3-fluorophenyl)-1-imino-1-oxo-1,4-thiazinan-4-carboxamide] | 6.62 | < 5.00
2 | CC1CN(C(=O)N(Cc2ccc(-c3nnc(C(F)F)o3)cc2F)c2ccccc2)CCS1(=N)=O (stereo not shown) [Compound 82, N-[[4-[5-(difluoromethyl)-1,3,4-oxadiazol-2-yl]-2-fluoro-phenyl]methyl]-1-imino-2-methyl-1-oxo-N-phenyl-1,4-thiazinan-4-carboxamide] | 7.03 | < 5.00
3 | N=S1(=O)CC(N2CC3(CN(C(=O)N(Cc4ccc(-c5nnc(C(F)F)o5)cc4F)c4ccccc4)C3)C2)C1 (stereo not shown) [Compound 83, N-[[4-[5-(difluoromethyl)-1,3,4-oxadiazol-2-yl]-2-fluoro-phenyl]methyl]-6-(1-imino-1-oxo-thiethan-3-yl)-N-phenyl-2,6-diazaspiro[3.3]heptan-2-carboxamide] | 7.15 | < 5.00
4 | N=S1(=O)CC(N2C[C@@H]3C[C@H]2CN3C(=O)N(Cc2ccc(-c3nnc(C(F)F)o3)cn2)c2ccccc2)C1 (stereo partly drawn) [Compound 84, (1S,4S)—N-[[5-[5-(difluoromethyl)-1,3,4-oxadiazol-2-yl]-2-pyridyl]methyl]-5-(1-imino-1-oxo-thiethan-3-yl)-N-phenyl-2,5-diazabicyclo[2.2.1]heptan-2-carboxamide] | 7.25 | < 5.00
5 | CC1CN(C(=O)N(Cc2ccc(-c3nnc(C(F)F)o3)cn2)c2ccccc2)CCS1(=N)=O (stereo not shown) [Compound 85, N-[[5-[5-(difluoromethyl)-1,3,4-oxadiazol-2-yl]-2-pyridyl]methyl]-1-imino-2-methyl-1-oxo-N-phenyl-1,4-thiazinan-4-carboxamide] | 7.13 | < 5.00
6 | N=S1(=O)CCN(S(=O)(=O)N(Cc2ncc(-c3nnc(C(F)F)o3)s2)c2ccccc2)CC1 [Compound 86, N-[[5-[5-(difluoromethyl)-1,3,4-oxadiazol-2-yl]thiazol-2-yl]methyl]-1-imino-1-oxo-N-phenyl-1,4-thiazinan-4-sulfonamide] | 7.30 | < 5.00
7 | N=S1(=O)CC(N2C[C@@H]3C[C@H]2CN3c2c(N(Cc3ccc(-c4nnc(C(F)F)o4)cn3)c3ccccc3)c(=O)c2=O)C1 (stereo partly drawn) [Compound 87, 3-[N-[[5-[5-(difluoromethyl)-1,3,4-oxadiazol-2-yl]-2-pyridyl]methyl]anilino]-4-[(1S,4S)-5-(1-imino-1-oxo-thiethane-3-yl)-2,5-diazabicyclo[2.2.1]heptan-2-yl]cyclobut-3-en-1,2-dione] | 7.43 | < 5.00
8 | N=S1(=O)CC(N2C[C@@H]3C[C@H]2CN3c2c(N(Cc3ccc(-c4nnc(C(F)F)o4)cc3F)c3ccccc3)c(=O)c2=O)C1 (stereo partly drawn) [Compound 89, 3-[N-[[4-[5-(difluoromethyl)-1,3,4-oxadiazol-2-yl]-2-fluoro-phenyl]methyl]anilino]-4-[(1S,4S)-5-(1-imino-1-oxo-thiethan-3-yl)-2,5-diazabicyclo[2.2.1]heptan-2-yl]cyclobut-3-en-1,2-dione] | 7.47 | < 5.00
9 | CS(=N)(=O)C1CN(C(=O)N(Cc2ccc(-c3nnc(C(F)F)o3)cn2)c2cccc(F)c2)C1 (stereo not shown) [Compound 90, N-[[5-[5-(difluoromethyl)-1,3,4-oxadiazol-2-yl]-2-pyridyl]methyl]-N-(3-fluorophenyl)-3-(methylsulfonimidoyl)azetidin-1-carboxamide] | 7.33 | < 5.00
10 | CS(=N)(=O)C1CN(C(=O)N(Cc2ccc(-c3nnc(C(F)F)o3)cc2F)c2cccc(F)c2)C1 (stereo not shown) [Compound 91, N-[[4-[5-(difluoromethyl)-1,3,4-oxadiazol-2-yl]-2-fluoro-phenyl]methyl]-N-(3-fluorophenyl)-3-(methylsulfonimidoyl)azetidin-1-carboxamide] | 7.34 | < 5.00
11 | N=S1(=O)CC2(CN(C(=O)N(Cc3ccc(-c4nnc(C(F)F)o4)cc3F)c3ccccc3)C2)C1 [Compound 92, N-[[4-[5-(difluoromethyl)-1,3,4-oxadiazol-2-yl]-2-fluoro-phenyl]methyl]-2-imino-2-oxo-N-phenyl-2lambda6-thia-6-azaspiro[3.3]heptan-6-carboxamide] | 7.03 | < 5.00
